In ChEMBL document CHEMBL1201862, “PubChem BioAssay data set” (2004):
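Five compound concentrations were applied to cells in 96-well plates for 48 hours; endpoints were derived by simple linear interpolation of the resulting dose-response curve. The concentration for 50% growth inhibition is given as GI50.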 Calls of active or inactive are those of the source. Cut-off read from the data, not from the text of the source: active = GI50 up to about 1.1 µM and inactive = higher.

What was measured:
Assay in all cases: inhibition of tumour cell growth, NCI panel, 48 h
ACHN = test system: ACHN
CAKI-1 = test system: CAKI-1
CCRF-CEM = test system: CCRF-CEM
HCC 2998 = test system: HCC 2998
HOP-92 = test system: HOP-92
IGROV-1 = test system: IGROV-1
M14 = test system: M14
MCF7 = test system: MCF7
NCI-H226 = test system: NCI-H226
OVCAR-8 = test system: OVCAR-8
SF-539 = test system: SF-539
SNB-75 = test system: SNB-75
UACC-62 = test system: UACC-62
UO-31 = test system: UO-31
HOP-62 = test system: HOP-62
Malme-3M = test system: Malme-3M
NCI-H522 = test system: NCI-H522
RXF 393 = test system: RXF 393
SK-MEL-2 = test system: SK-MEL-2

SMILES | GI50 (ACHN) | GI50 (CAKI-1) | GI50 (CCRF-CEM) | GI50 (HCC 2998) | GI50 (HOP-92) | GI50 (IGROV-1) | GI50 (M14) | GI50 (MCF7) | GI50 (NCI-H226) | GI50 (OVCAR-8) | GI50 (SF-539) | GI50 (SNB-75) | GI50 (UACC-62) | GI50 (UO-31) | GI50 (HOP-62) | GI50 (Malme-3M) | GI50 (NCI-H522) | GI50 (RXF 393) | GI50 (SK-MEL-2)
CN1C2=C(CC3=C1CC(C)(C)CC3=O)C(=O)CC(C)(C)C2 | > 100 µM (inactive) | > 100 µM (inactive) | > 100 µM (inactive) | > 100 µM (inactive) | > 100 µM (inactive) | > 100 µM (inactive) | > 100 µM (inactive) | > 100 µM (inactive) | > 100 µM (inactive) | > 100 µM (inactive) | > 100 µM (inactive) | > 100 µM (inactive) | > 100 µM (inactive) | > 100 µM (inactive) |  |  |  |  | 
CCOC(=O)C(CC/C=C\c1ccccc1)N1CCC[C@H]1C(=O)OC (some centres not stated) | > 100 µM (inactive) | > 100 µM (inactive) | 94.8 µM (inactive) | > 100 µM (inactive) | > 100 µM (inactive) | > 100 µM (inactive) | > 100 µM (inactive) |  | > 100 µM (inactive) | > 100 µM (inactive) | > 100 µM (inactive) | > 100 µM (inactive) | > 100 µM (inactive) | > 100 µM (inactive) | > 100 µM (inactive) | > 100 µM (inactive) | > 100 µM (inactive) | > 100 µM (inactive) | > 100 µM (inactive)
COC(=O)C1(C(=O)OC)CC(=O)c2cc3c(cc2-c2c(cc(OC)c(OC)c2OC)C1)OCO3 | > 211 µM (inactive) | > 211 µM (inactive) | 173 µM (inactive) | > 211 µM (inactive) | 26.8 µM (inactive) | > 211 µM (inactive) |  |  | 95.5 µM (inactive) | 139 µM (inactive) | > 211 µM (inactive) |  | 109 µM (inactive) |  | > 211 µM (inactive) | > 211 µM (inactive) | 96.4 µM (inactive) | 54.7 µM (inactive) | > 211 µM (inactive)
O=C(N/C(=C\c1ccc(/C=C(\NC(=O)c2ccccc2)c2nc3ccccc3s2)cc1)c1nc2ccccc2s1)c1ccccc1 | 4.59 µM (inactive) | 14.9 µM (inactive) | 1.56 µM (inactive) | 14.7 µM (inactive) | 12.5 µM (inactive) | 3.85 µM (inactive) | 3.42 µM (inactive) |  | 19.1 µM (inactive) | 2.34 µM (inactive) | 2.14 µM (inactive) | 5.48 µM (inactive) | 2.37 µM (inactive) | 2.86 µM (inactive) | 18.4 µM (inactive) | 11.9 µM (inactive) | 2.13 µM (inactive) | 17.7 µM (inactive) | 6.62 µM (inactive)
CC(C)(C)OC(=O)N(CCNS(=O)(=O)c1cccc2cnccc12)CCC(=O)ON1C(=O)CCC1=O | > 100 µM (inactive) |  |  |  | 10.4 µM (inactive) | > 100 µM (inactive) | > 100 µM (inactive) | > 100 µM (inactive) | > 100 µM (inactive) | > 100 µM (inactive) |  | > 100 µM (inactive) | > 100 µM (inactive) | > 100 µM (inactive) | > 100 µM (inactive) | > 100 µM (inactive) | > 100 µM (inactive) | > 100 µM (inactive) | > 100 µM (inactive)
COc1ccccc1NC(=O)C1=C(C)NC(C)=C(C(=O)Nc2ccccc2OC)C1c1ccc(C)cc1 | 17.3 µM (inactive) | > 100 µM (inactive) |  | 97.5 µM (inactive) | > 100 µM (inactive) | 58.7 µM (inactive) | 64.6 µM (inactive) |  | 10.5 µM (inactive) | 58.9 µM (inactive) | > 100 µM (inactive) | 58.5 µM (inactive) | 65.3 µM (inactive) | 43 µM (inactive) | > 100 µM (inactive) | > 100 µM (inactive) | 60.7 µM (inactive) | 35 µM (inactive) | 48.2 µM (inactive)
COc1cccc2c1CCc1ccccc1CC2=O | > 100 µM (inactive) | > 100 µM (inactive) | > 100 µM (inactive) | > 100 µM (inactive) | > 100 µM (inactive) | > 100 µM (inactive) | > 100 µM (inactive) |  | > 100 µM (inactive) | > 100 µM (inactive) | > 100 µM (inactive) | > 100 µM (inactive) | > 100 µM (inactive) | > 100 µM (inactive) |  | > 100 µM (inactive) | > 100 µM (inactive) | > 100 µM (inactive) | > 100 µM (inactive)
COC1=CC(=O)[C@]2(C)[C@H](C1=O)C(C)[C@H]2c1ccc(OC)cc1 (some centres not stated) | > 100 µM (inactive) | > 100 µM (inactive) | > 100 µM (inactive) | > 100 µM (inactive) | > 100 µM (inactive) | > 100 µM (inactive) | > 100 µM (inactive) |  | > 100 µM (inactive) | > 100 µM (inactive) | > 100 µM (inactive) | > 100 µM (inactive) | > 100 µM (inactive) | 82 µM (inactive) | > 100 µM (inactive) | > 100 µM (inactive) | > 100 µM (inactive) | > 100 µM (inactive) | > 100 µM (inactive)
Cc1cccc(-c2nnc3s/c(=C\c4ccc(N(C)C)cc4)c(=O)n23)c1 | > 100 µM (inactive) | > 100 µM (inactive) | > 100 µM (inactive) | > 100 µM (inactive) | > 100 µM (inactive) | > 100 µM (inactive) | > 100 µM (inactive) |  | > 100 µM (inactive) | > 100 µM (inactive) | > 100 µM (inactive) | > 100 µM (inactive) | > 100 µM (inactive) | > 100 µM (inactive) | > 100 µM (inactive) | > 100 µM (inactive) | > 100 µM (inactive) | > 100 µM (inactive) | > 100 µM (inactive)
CC(=O)c1ccc2c(c1)oc(=O)n2CCN(C)C | > 100 µM (inactive) | > 100 µM (inactive) | > 100 µM (inactive) |  |  | 32.1 µM (inactive) | > 100 µM (inactive) | > 100 µM (inactive) | > 100 µM (inactive) | > 100 µM (inactive) | > 100 µM (inactive) | 21.7 µM (inactive) | > 100 µM (inactive) |  | > 100 µM (inactive) | 2.02 µM (inactive) |  | > 100 µM (inactive) | > 100 µM (inactive)
CCC(=O)N(O)C(C)(C)C | > 100 µM (inactive) | > 100 µM (inactive) | > 100 µM (inactive) | > 100 µM (inactive) | > 100 µM (inactive) | > 100 µM (inactive) | > 100 µM (inactive) |  | > 100 µM (inactive) | > 100 µM (inactive) | > 100 µM (inactive) | 92.3 µM (inactive) | > 100 µM (inactive) | > 100 µM (inactive) | > 100 µM (inactive) | > 100 µM (inactive) | > 100 µM (inactive) | > 100 µM (inactive) | 
CCN(CC)CCCC(C)Nc1ccnc2cc3ccccc3cc12 (configuration not stated) | 3.72 µM (inactive) | 9.2 µM (inactive) | > 100 µM (inactive) |  | 12.3 µM (inactive) | 4.43 µM (inactive) | 14.6 µM (inactive) | 5.35 µM (inactive) | 20.9 µM (inactive) | 7.23 µM (inactive) | 22.8 µM (inactive) | 6.95 µM (inactive) | 17.2 µM (inactive) | 6.32 µM (inactive) | 12.4 µM (inactive) | 19.7 µM (inactive) | 10.4 µM (inactive) | 9.53 µM (inactive) | 23.9 µM (inactive)
COC(=O)/C=C(/OC)[C@H](C)[C@H](/C=C/c1csc(-c2csc(C(C)C)n2)n1)OC | 0.124 µM (active) | 7.08 µM (inactive) | 18.2 µM (inactive) |  | 6.07 µM (inactive) | 0.426 µM (active) | 1.44 µM (inactive) | 0.178 µM (active) | 4.19 µM (inactive) | 0.785 µM (active) | 8.79 µM (inactive) | > 100 µM (inactive) | 0.33 µM (active) | 0.703 µM (active) | > 43.3 µM (inactive) | 18.8 µM (inactive) | 1.21 µM (inactive) | 1.35 µM (inactive) | 28 µM (inactive)
C[Si](C)(C)/N=C1\N2C(=NC1(C(F)(F)F)C(F)(F)F)Sc1ccccc12 | > 50 µM (inactive) | > 50 µM (inactive) | > 50 µM (inactive) | > 50 µM (inactive) | 29.9 µM (inactive) | > 50 µM (inactive) | > 50 µM (inactive) |  | > 50 µM (inactive) | > 50 µM (inactive) | > 50 µM (inactive) | > 50 µM (inactive) | > 50 µM (inactive) | > 50 µM (inactive) | > 50 µM (inactive) | > 50 µM (inactive) | > 50 µM (inactive) | > 50 µM (inactive) | > 50 µM (inactive)
CN(C)c1nc(N(C)C)n2nc(-c3ccccc3[N+](=O)[O-])nc2n1 | > 100 µM (inactive) | > 100 µM (inactive) | > 100 µM (inactive) | > 100 µM (inactive) | > 100 µM (inactive) | > 100 µM (inactive) | > 100 µM (inactive) |  | > 100 µM (inactive) | > 100 µM (inactive) | 33 µM (inactive) | > 100 µM (inactive) | > 100 µM (inactive) | > 100 µM (inactive) | > 100 µM (inactive) | > 100 µM (inactive) | > 100 µM (inactive) | > 100 µM (inactive) | > 100 µM (inactive)
Cc1nc2c(nc1C)C(=O)c1cc(O)ccc1C2=O | > 100 µM (inactive) | > 100 µM (inactive) | 48.9 µM (inactive) | > 67.6 µM (inactive) | > 100 µM (inactive) | 68.9 µM (inactive) | > 77.6 µM (inactive) |  | > 100 µM (inactive) | 53.2 µM (inactive) | > 81.1 µM (inactive) | > 100 µM (inactive) | 22.3 µM (inactive) | > 100 µM (inactive) | 69.5 µM (inactive) | 20.5 µM (inactive) | 57.4 µM (inactive) | > 100 µM (inactive) | 55.6 µM (inactive)
